Assay results taken from patent publication EP0584797A2, “Novel cephalosporin compounds and processes for the preparation thereof” (LUCKY LTD., priority 1992, dated 1994).
Converted amounts (≈) assume the structure as drawn.

Assays:
Assay in all cases: minimal inhibitory concentration, two-fold agar dilution
Format in all cases: cell-based
[1] = system: Klebsiella pneumoniae ATCC 10031; settings: ATCC10031, Muller-Hinton agar, 37°C, 20 hours, read-out: MIC values against the standard strains
Description: (§1) These MIC values were taken by employing a two-fold dilution method: that is, two-fold serial dilutions of each of the test compounds were made and dispersed in a Muller-Hinton agar medium; 2µl of the standard test strain which had the 10⁷ CFU(Colony Forming Unit) per ml was inoculated on the medium; and these were incubated at 37°C for 20 hours.

[2] = system: Micrococcus luteus ATCC 9341; settings: ATCC9341, Muller-Hinton agar, 37°C, 20 hours, read-out: MIC values against the standard strains
Description: as §1

[3] = system: Staphylococcus epidermidis ATCC 12228; settings: ATCC12228, Muller-Hinton agar, 37°C, 20 hours, read-out: MIC values against the standard strains
Description: as §1

[4] = system: Staphylococcus aureus ATCC 6538p; settings: ATCC6538P, Muller-Hinton agar, 37°C, 20 hours, read-out: MIC values against the standard strains
Description: as §1

[5] = system: Pseudomonas aeruginosa ATCC 25619; settings: ATCC25619, Muller-Hinton agar, 37°C, 20 hours, read-out: MIC values against the standard strains
Description: as §1

[6] = system: Pseudomonas aeruginosa ATCC 10145; settings: ATCC10145, Muller-Hinton agar, 37°C, 20 hours, read-out: MIC values against the standard strains
Description: as §1

[7] = system: Escherichia coli ATCC 10536; settings: ATCC10536, Muller-Hinton agar, 37°C, 20 hours, read-out: MIC values against the standard strains
Description: as §1

[8] = system: Pseudomonas aeruginosa ATCC 27853; settings: ATCC27853, Muller-Hinton agar, 37°C, 20 hours, read-out: MIC values against the standard strains
Description: as §1

[9] = system: Proteus vulgaris ATCC 6059; settings: ATCC6059, Muller-Hinton agar, 37°C, 20 hours, read-out: MIC values against the standard strains
Description: as §1

[10] = system: Serratia marcescens ATCC 27117; settings: ATCC27117, Muller-Hinton agar, 37°C, 20 hours, read-out: MIC values against the standard strains
Description: as §1

[11] = system: Streptococcus faecalis ATCC 29212; settings: Enterococcus faecalis, ATCC29212; Muller-Hinton agar; 37°C; 20 hours; read-out: MIC values against the standard strains
Description: as §1

[12] = system: Shigella flexneri ATCC 11836; settings: ATCC11836, Muller-Hinton agar, 37°C, 20 hours, read-out: MIC values against the standard strains
Description: as §1

[13] = system: Acinetobacter calcoaceticus ATCC 15473; settings: ATCC15473, Muller-Hinton agar, 37°C, 20 hours, read-out: MIC values against the standard strains
Description: as §1

[14] = system: Enterobacter cloacae ATCC 27508; settings: ATCC27508, Muller-Hinton agar, 37°C, 20 hours, read-out: MIC values against the standard strains
Description: as §1

[15] = system: Bacillus cereus ATCC 11778; settings: ATCC11778, Muller-Hinton agar, 37°C, 20 hours, read-out: MIC values against the standard strains
Description: as §1

[16] = system: Proteus mirabilis ATCC 25933; settings: ATCC25933, Muller-Hinton agar, 37°C, 20 hours, read-out: MIC values against the standard strains
Description: as §1

[17] = system: Escherichia coli ATCC 25922; settings: ATCC25922, Muller-Hinton agar, 37°C, 20 hours, read-out: MIC values against the standard strains
Description: as §1

[18] = system: Morganella morganii ATCC 8076h; settings: ATCC8076H, Muller-Hinton agar, 37°C, 20 hours, read-out: MIC values against the standard strains
Description: as §1

[19] = system: Bacillus megaterium ATCC 9885; settings: Priestia megaterium, ATCC9885; Muller-Hinton agar; 37°C; 20 hours; read-out: MIC values against the standard strains
Description: as §1

[20] = system: Salmonella typhimurium ATCC 14028; settings: Salmonella enterica; Muller-Hinton agar; 37°C; 20 hours; read-out: MIC values against the standard strains
Description: as §1

[21] = system: Shigella sonnei ATCC 11060; settings: ATCC11060, Muller-Hinton agar, 37°C, 20 hours, read-out: MIC values against the standard strains
Description: as §1

[22] = system: Staphylococcus aureus ATCC 10537; settings: ATCC10537, Muller-Hinton agar, 37°C, 20 hours, read-out: MIC values against the standard strains
Description: as §1

[23] = system: Citrobacter freundii ATCC 8090; settings: ATCC8090, Muller-Hinton agar, 37°C, 20 hours, read-out: MIC values against the standard strains
Description: as §1

[24] = system: Providencia rettgeri ATCC 9250; settings: ATCC9250, Muller-Hinton agar, 37°C, 20 hours, read-out: MIC values against the standard strains
Description: as §1

[25] = system: Enterobacter aerogenes ATCC 29751; settings: Klebsiella aerogenes, ATCC29751; Muller-Hinton agar; 37°C; 20 hours; read-out: MIC values against the standard strains
Description: as §1

| SMILES | MIC [1] [µg/mL] | MIC [2] [µg/mL] | MIC [3] [µg/mL] | MIC [4] [µg/mL] | MIC [5] [µg/mL] | MIC [6] [µg/mL] | MIC [7] [µg/mL] | MIC [8] [µg/mL] | MIC [9] [µg/mL] | MIC [10] [µg/mL] | MIC [11] [µg/mL] | MIC [12] [µg/mL] | MIC [13] [µg/mL] | MIC [14] [µg/mL] | MIC [15] [µg/mL] | MIC [16] [µg/mL] | MIC [17] [µg/mL] | MIC [18] [µg/mL] | MIC [19] [µg/mL] | MIC [20] [µg/mL] | also measured |
| --- | --- | --- | --- | --- | --- | --- | --- | --- | --- | --- | --- | --- | --- | --- | --- | --- | --- | --- | --- | --- | --- |
| CCO/N=C(\C(=O)N[C@@H]1C(=O)N2C(C(=O)[O-])=C(CSc3nc(N)cc(NC)[n+]3C)CS[C@H]12)c1csc(N)n1 [Example 36, 7-[(Z)-2-(2-aminothiazol-4-yl)-2-(ethoxyimino)acetamido]-3-(4-amino-6-methylamino-1-methylpyrimidinium-2-yl)thiomethyl-3-cephem-4-carboxylate] | ≤ 0.008 | ≤ 0.008 | 0.031 (≈ 0.0535 µM) | 0.25 (≈ 0.431 µM) | 0.5 (≈ 0.863 µM) | 8 (≈ 13.8 µM) | 0.031 (≈ 0.0535 µM) | 4 (≈ 6.9 µM) | 0.25 (≈ 0.431 µM) | 0.13 (≈ 0.224 µM) | 32 (≈ 55.2 µM) | ≤ 0.008 | 4 (≈ 6.9 µM) | ≤ 0.008 | 32 (≈ 55.2 µM) | 0.25 (≈ 0.431 µM) | 0.063 (≈ 0.109 µM) | 0.016 (≈ 0.0276 µM) | 0.063 (≈ 0.109 µM) | 0.13 (≈ 0.224 µM) | MIC [21]: 0.063 µg/mL (≈ 0.109 µM); MIC [22]: 0.13 µg/mL (≈ 0.224 µM); MIC [23]: 0.016 µg/mL (≈ 0.0276 µM); MIC [24]: ≤ 0.008 µg/mL; MIC [25]: 0.13 µg/mL (≈ 0.224 µM) |
| CCO/N=C(\C(=O)N[C@@H]1C(=O)N2C(C(=O)[O-])=C(CSc3nc(N)c(C(=O)O)c[n+]3C)CS[C@H]12)c1csc(N)n1 [Example 25, 7-[(Z)-2-(2-aminothiazol-4-yl)-2-(ethoxyimino)acetamido]-3-(4-amino-5-carboxy-1-methylpyrimidinium-2-yl)thiomethyl-3-cephem-4-carboxylate] | 0.016 (≈ 0.0269 µM) | 0.063 (≈ 0.106 µM) | 0.5 (≈ 0.841 µM) | 1 (≈ 1.68 µM) | 2 (≈ 3.36 µM) | 32 (≈ 53.8 µM) | 0.031 (≈ 0.0521 µM) | 32 (≈ 53.8 µM) | 0.25 (≈ 0.42 µM) | 0.5 (≈ 0.841 µM) | > 128 | 0.016 (≈ 0.0269 µM) | 32 (≈ 53.8 µM) | ≤ 0.008 | 64 (≈ 108 µM) | 0.25 (≈ 0.42 µM) | 0.031 (≈ 0.0521 µM) | ≤ 0.008 | 0.25 (≈ 0.42 µM) | 0.13 (≈ 0.219 µM) | MIC [21]: 0.063 µg/mL (≈ 0.106 µM); MIC [22]: 0.5 µg/mL (≈ 0.841 µM); MIC [23]: 0.063 µg/mL (≈ 0.106 µM); MIC [24]: ≤ 0.008 µg/mL; MIC [25]: 1 µg/mL (≈ 1.68 µM) |
| CCO/N=C(\C(=O)N[C@@H]1C(=O)N2C(C(=O)[O-])=C(CSc3nc(N)c4ccoc4[n+]3C)CS[C@H]12)c1csc(N)n1 [Example 33, 7-[(Z)-2-(2-aminothiazol-4-yl)-2-(ethoxyimino)acetamido]-3-(4-amino-1-methylfuro-[5,6,e]pyrimidinium-2-yl)thiomethyl-3-cephem-4-carboxylate] | ≤ 0.008 | 0.031 (≈ 0.0525 µM) | 0.13 (≈ 0.22 µM) | 0.25 (≈ 0.423 µM) | 0.5 (≈ 0.846 µM) | 16 (≈ 27.1 µM) | 0.063 (≈ 0.107 µM) | 8 (≈ 13.5 µM) | 0.25 (≈ 0.423 µM) | 0.5 (≈ 0.846 µM) | 8 (≈ 13.5 µM) | 0.063 (≈ 0.107 µM) | 8 (≈ 13.5 µM) | ≤ 0.008 | 32 (≈ 54.2 µM) | 0.5 (≈ 0.846 µM) | 0.063 (≈ 0.107 µM) | ≤ 0.008 | 0.063 (≈ 0.107 µM) | 0.5 (≈ 0.846 µM) | MIC [21]: 0.13 µg/mL (≈ 0.22 µM); MIC [22]: 0.25 µg/mL (≈ 0.423 µM); MIC [23]: 0.063 µg/mL (≈ 0.107 µM); MIC [24]: ≤ 0.008 µg/mL; MIC [25]: 0.5 µg/mL (≈ 0.846 µM) |
| CCO/N=C(\C(=O)N[C@@H]1C(=O)N2C(C(=O)[O-])=C(CSc3nc(N)cc[n+]3N)CS[C@H]12)c1csc(N)n1 [Example 42, 7-[(Z)-2-(2-aminothiazol-4-yl)-2-(ethoxyimino)acetamido]-3-(1,4-diaminopyrimidinium-2-yl)thiomethyl-3-cephem-4-carboxylate] | ≤ 0.008 | ≤ 0.008 | 0.031 (≈ 0.0562 µM) | 0.13 (≈ 0.236 µM) | 0.5 (≈ 0.906 µM) | 8 (≈ 14.5 µM) | 0.031 (≈ 0.0562 µM) | 4 (≈ 7.25 µM) | 1 (≈ 1.81 µM) | 0.5 (≈ 0.906 µM) | 8 (≈ 14.5 µM) | 0.25 (≈ 0.453 µM) | 4 (≈ 7.25 µM) | ≤ 0.008 | 32 (≈ 58 µM) | 1 (≈ 1.81 µM) | 0.031 (≈ 0.0562 µM) | 0.25 (≈ 0.453 µM) | 0.063 (≈ 0.114 µM) | 0.5 (≈ 0.906 µM) | MIC [21]: 0.25 µg/mL (≈ 0.453 µM); MIC [22]: 0.13 µg/mL (≈ 0.236 µM); MIC [23]: 0.063 µg/mL (≈ 0.114 µM); MIC [24]: 0.063 µg/mL (≈ 0.114 µM); MIC [25]: 0.13 µg/mL (≈ 0.236 µM) |
| C[n+]1cc(-c2ccccc2)c(N)nc1SCC1=C(C(=O)[O-])N2C(=O)[C@@H](NC(=O)/C(=N\OC(C)(C)C(=O)O)c3csc(N)n3)[C@H]2SC1 [Example 21, 7-[(Z)-2-(2-aminothiazol-4-yl)-2-(carboxyprop-2-oxyimino)acetamido]-3-(4-amino-5-phenyl-1-methylpyrimidinium-2-yl)thiomethyl-3-cephem-4-carboxylate] | 0.031 (≈ 0.0453 µM) | 0.5 (≈ 0.73 µM) | 2 (≈ 2.92 µM) | 4 (≈ 5.84 µM) | 2 (≈ 2.92 µM) | 16 (≈ 23.4 µM) | 0.13 (≈ 0.19 µM) | 8 (≈ 11.7 µM) | 0.25 (≈ 0.365 µM) | 0.5 (≈ 0.73 µM) | > 128 | 0.063 (≈ 0.092 µM) | 32 (≈ 46.7 µM) | 0.016 (≈ 0.0234 µM) | 128 (≈ 187 µM) | 0.25 (≈ 0.365 µM) | 0.13 (≈ 0.19 µM) | ≤ 0.008 | 0.13 (≈ 0.19 µM) | 0.5 (≈ 0.73 µM) | MIC [21]: 0.13 µg/mL (≈ 0.19 µM); MIC [22]: 1 µg/mL (≈ 1.46 µM); MIC [23]: 0.13 µg/mL (≈ 0.19 µM); MIC [24]: ≤ 0.008 µg/mL; MIC [25]: 2 µg/mL (≈ 2.92 µM) |
| CCO/N=C(\C(=O)N[C@@H]1C(=O)N2C(C(=O)[O-])=C(CSc3nc(N)c(N)c[n+]3N)CS[C@H]12)c1csc(N)n1 [Example 46, 7-[(Z)-2-(2-aminothiazol-4-yl)-2-(ethoxyimino)acetamido]-3-(1,4,5-triaminopyrimidinium-2-yl)thiomethyl-3-cephem-4-carboxylate] | 0.063 (≈ 0.111 µM) | 0.031 (≈ 0.0547 µM) | 0.031 (≈ 0.0547 µM) | 0.25 (≈ 0.441 µM) | 0.5 (≈ 0.882 µM) | 8 (≈ 14.1 µM) | 0.031 (≈ 0.0547 µM) | 4 (≈ 7.06 µM) | 0.25 (≈ 0.441 µM) | 0.25 (≈ 0.441 µM) | 8 (≈ 14.1 µM) | 0.031 (≈ 0.0547 µM) | 4 (≈ 7.06 µM) | ≤ 0.008 | 64 (≈ 113 µM) | 0.25 (≈ 0.441 µM) | 0.031 (≈ 0.0547 µM) | 0.016 (≈ 0.0282 µM) | 0.063 (≈ 0.111 µM) | 0.25 (≈ 0.441 µM) | MIC [21]: 0.031 µg/mL (≈ 0.0547 µM); MIC [22]: 0.13 µg/mL (≈ 0.229 µM); MIC [23]: 0.063 µg/mL (≈ 0.111 µM); MIC [24]: 0.031 µg/mL (≈ 0.0547 µM); MIC [25]: 1 µg/mL (≈ 1.76 µM) |
